Measured values as given in patent US20220361555A1, “INHIBITION OF UNDESIRED SENSORY EFFECTS BY THE COMPOUND CAMPHOR” (priority 2010, published 2022).
“And” between values parts separate entries of the source, which are not always exact repeats. Identical values can stand only once. “Also recorded” adds a separate entry of the source.

Assays:
[1] = test system: nerve fibers; settings: isolated mouse trachea model, Kichko et al.; cited from earlier work
[2] = test system: mouth of subjects using oral tobacco; assay: Snus pouches with camphor, perceived burning in the mouth (2AFC); type: in vivo, human; settings: snus pouch
Procedure: A further study was conducted to determine if camphor affected perceived burning in the mouth of subjects using oral tobacco. Participants were given two snus pouch samples to use simultaneously, one in each side of the mouth. One sample was a control pouch with no camphor added and the other contained various concentrations of camphor (2.3, 6, 12, 23, 46, and 69 nanograms, corresponding to […], based on tobacco weight, respectively).
The hand-made test samples were constructed using unflavored tobacco (12% oven volatiles) to prevent any possible interference of the flavor system with the objective of the study. In preparing the pouches, the camphor was dissolved in 95% ethanol, with the control pouches receiving the ethanol only. […]
After two (2) minutes, five (5) minutes, and ten (10) minutes of using the samples, participants were asked to indicate which side of the mouth was burning more. Responses were recorded on paper by the experimenter. […] Following each evaluation, participants were asked to give details regarding where the burning was felt and to provide any open-ended comments regarding their experience, which were recorded on paper by the experimenter. Participants repeated the sensory evaluation procedures an additional six (6) times, with a maximum of two (2) pairs being evaluated each day.

[3] = test system: tongues of 18 participants; assay: Camphor in NEOBEE oil carrier pretreatment, burning sensation from nicotine strips; type: in vivo, human; parameters: Difference from control (burning from nicotine): scale not given here
Procedure: Camphor pretreatment was performed using two taste strips applied bilaterally (blinded, randomized) on the tongues of 18 participants. Test strips had 250 microliters of NEOBEE oil carrier with camphor concentrations of C ranging from 300 ppm to 1800 ppm. Control strips contained 250 microliters of carrier only (NEOBEE Oil). The pretreatment time was about 30 seconds. Participants then removed the taste strips and nicotine strips were placed in treated area. The nicotine was provided in an amount of 730 micrograms in 50 microliters for about 30 seconds. Each nicotine strip was then removed, followed by sensory evaluation of burning immediately, at 30 seconds, and 2 minutes. For sensory evaluation, 2 AFC and sensory irritation intensity ratings were generated.
A repeated measures analysis of variance (ANOVA) model was applied to analyze the data. The model includes terms for study participant, study time and concentration of camphor (see the Table 1). The SAS procedure “PROC MIXED” was used. The p value was for the comparison between each concentration with the control. The chi squared test was used for calculating significance for forced choice values.

[4] = test system: participants (mouth); assay: Determination of irritation threshold of camphor solution in the mouth; type: in vivo, human; parameters: key to irritation perceived: Y: the participant felt irritation at the indicated concentration; N: no irritation was felt; settings: for irritation perceived: 2 ml solution swished 10 seconds
Procedure: A further study was conducted to determine the threshold at which camphor itself would cause sensory irritation.
Each test used two milliliters (2 ml) of a camphor solution. The camphor was dissolved in ethanol and further diluted in water. Participants received sequentially increasing concentration of camphor. Nine participants received samples including food grade racemic camphor, with concentrations of 200, 300, 400, […] 1000, 2000, 4000, 6000 ppm (corresponding to about […] per sample, respectively).
Participants wore nose clips during evaluation. Each participant sipped the sample, swished it in the mouth for 10 seconds, then spat it out. Each participant then indicated whether irritation was perceived. Between evaluations of each sample, participants rinsed with water and waited for one minute.
The left-most column indicates the participant number of each individual participant.

[5] = Sensory effect of camphor in mineral oil in smokeless tobacco products; type: in vivo
[6] = test system: acetylcholine receptors; settings: by inhibiting acetylcholine receptors, Park et al.; cited from earlier work
[7] = test system: tongues of human volunteers; assay: Pre-treatment with camphor (ethanol/water solution on a strip) on sensory irritation from nicotine; type: in vivo; settings: 25, 50 or 100 ppm camphor on a strip for 30 seconds, then 0.1-0.3% nicotine; immediately and 30 seconds after initial exposure
Text: FIGS. 1 and 2 show the results of a study on the effect of pre-treatment with camphor on sensory irritation from nicotine. Camphor was applied to tongues of human volunteers prior to application of a nicotine solution. Randomized sides of tongues were selected for application of 20 microliters of 0 ppm, 25 ppm, 50 ppm, or 100 ppm of camphor from an ethanol/water solution on a strip (thus, about […], respectively) for 30 seconds. Then, the subjects sipped, rinsed, then spit 0.1%, 0.2%, or 0.3% of a nicotine solution for a 5 second application. Participants were then asked which side of the tongue has the strongest burning sensation. Responses were collected both immediately (within 5 seconds) (FIG. 1) and after 30 seconds (FIG. 2). Controls received no camphor, and a baseline was established at zero camphor.

CC12CCC(CC1=O)C2(C)C (racemic) [camphor]
activation of nerve fibers induced by nicotine [1]: effectively inhibit activation of nerve fibers | time at which the effect on oral burning was strongest ([2]; asked at 2, 5 and 10 minutes): 10 min | quantity of camphor most effective in reducing oral burning ([2]; printed as corresponding to 50 ppm): 12 nanogram | sensory irritation from nicotine versus control ([3]; 600 ppm, 900 ppm and 1200 ppm camphor, immediately, at 30 seconds and at 120 seconds after nicotine): significant reduction in sensory irritation from nicotine | Difference from control (burning from nicotine) ([3]; study time 0 sec, camphor 300 ppm in NEOBEE oil): 4.31 | Difference from control (burning from nicotine) ([3]; study time 0 sec, camphor 600 ppm in NEOBEE oil): −24.03 | Difference from control (burning from nicotine) ([3]; study time 0 sec, camphor 900 ppm in NEOBEE oil): −22.64 | Difference from control (burning from nicotine) ([3]; study time 0 sec, camphor 1200 ppm in NEOBEE oil): −19.99 | Difference from control (burning from nicotine) ([3]; study time 0 sec, camphor 1500 ppm in NEOBEE oil): −8.62 | Difference from control (burning from nicotine) ([3]; study time 0 sec, camphor 1800 ppm in NEOBEE oil): 7.29 | Difference from control (burning from nicotine) ([3]; study time 30 sec, camphor 300 ppm in NEOBEE oil): −1.67 | Difference from control (burning from nicotine) ([3]; study time 30 sec, camphor 600 ppm in NEOBEE oil): −18.00 | Difference from control (burning from nicotine) ([3]; study time 30 sec, camphor 900 ppm in NEOBEE oil): −19.72 | Difference from control (burning from nicotine) ([3]; study time 30 sec, camphor 1200 ppm in NEOBEE oil): −14.30 | Difference from control (burning from nicotine) ([3]; study time 30 sec, camphor 1500 ppm in NEOBEE oil): −11.11 | Difference from control (burning from nicotine) ([3]; study time 30 sec, camphor 1800 ppm in NEOBEE oil): 5.25 | Difference from control (burning from nicotine) ([3]; study time 120 sec, camphor 300 ppm in NEOBEE oil): −2.12 | Difference from control (burning from nicotine) ([3]; study time 120 sec, camphor 600 ppm in NEOBEE oil): −13.80 | Difference from control (burning from nicotine) ([3]; study time 120 sec, camphor 900 ppm in NEOBEE oil): −17.69 | Difference from control (burning from nicotine) ([3]; study time 120 sec, camphor 1200 ppm in NEOBEE oil): −11.93 | Difference from control (burning from nicotine) ([3]; study time 120 sec, camphor 1500 ppm in NEOBEE oil): −2.38 | Difference from control (burning from nicotine) ([3]; study time 120 sec, camphor 1800 ppm in NEOBEE oil): 2.16 | irritation perceived ([4]; 200 ppm camphor, one line per participant): Y (3×) and N (6×) | irritation perceived ([4]; 300 ppm camphor, one line per participant): Y (3×) and N (6×) | irritation perceived ([4]; 400 ppm camphor, one line per participant): Y (4×) and N (4×) | irritation perceived ([4]; 500 ppm camphor, one line per participant): N (3×) and Y (3×) | irritation perceived ([4]; 1000 ppm camphor, one line per participant): N and Y (2×) | irritation perceived ([4]; 2000 ppm camphor, one line per participant): Y | irritation perceived ([4]; 4000 ppm camphor, one line per participant): Y | irritation perceived ([4]; 6000 ppm camphor, one line per participant): Y | mean threshold for producing irritation ([4]; n=9): 655 ppm | Notes (sensation described by participant) ([4]; one line per participant, first line given): Very slight tingling at 200,; also recorded: Felt slight tingling at 2000,; also recorded: Felt some tingling at 1000,; also recorded: Tingling at 300, tingling no; also recorded: Slight tingling and burning at; also recorded: No Burning, slight tingling on; also recorded: Some burning at 200, stronger; also recorded: Felt slight tingling at 500,; also recorded: Some burning and stinging at | concentration of camphor that does not exhibit a sensory effect of its own (smell, taste, extensive cooling) [5]: less than 1300 ppm | norepinephrine release from adrenal gland cells [6]: inhibit norepinephrine release | perceived burning from nicotine after pre-treatment with camphor [7]: significantly reduced perceived burning from nicotine
